# Assay results taken from US20250186751A1, “BREATH-POWERED NASAL DEVICES FOR TREATMENT OF TRAUMATIC BRAIN INJURY (TBI), INCLUDING CONCUSSION, AND METHODS AND METHODS” (Odyssey Health, Inc., priority 2021, published 2025).
# Assays:
# [1] = preclinical studies of neuroprotective effects; assay type: in vivo; settings: compared to related neurosteroids
# Excerpt: (§1) ent-19-norprogesterone is a fully synthetic, non-naturally, occurring neurosteroid.
# [2] = test system: animal models of concussion; test: animal models of concussion; assay type: in vivo
# Excerpt: as §1
smiles,measurement,setting,value
"CC(=O)[C@@H]1CCC2C3CCC4=CC(=O)CC[C@H]4C3CC[C@]21C (single isomer, unassigned) [ent-19-norprogesterone, ent-19-norpregn-4-ene-3,20-dione]",neuroprotective effects,[1],"equivalent, if not superior, neuroprotective effects compared to related neurosteroids"
same,"behavioral pathology associated with brain injury symptoms such as memory impairment, anxiety, and motor/sensory performance",[2],reduces the behavioral pathology
